Experiments:
[1] = tested on: human neuroblastoma cell line GOTO; assay: Activity on cell line GOTO (simple method); format: cell-based; conditions: Table 2 GOTO Run No. 1; 10 μg/ml; control 8.4
Protocol: The biological activities in vitro of the compounds of formula (I) on cells of the nervous system were tested. The cells tested were human neuroblastoma cell line GOTO [see Sekiguchi, M., Oota, T., Sakakibara, K., Inui, N. & Fujii, G., Japan. J. Exp. Med., 49, 67-83 (1979)], and neuroblastoma cell line NB-1 [see Miyake, S., Shimo, Y., Kitamura, T., Nojyo, Y., Nakamura, T., Imkashuku, S. and Abe, T., The Autonomic Nervous System, 10, 115-120 (1973)], and mouse neuroblastoma cell line neuro-2a (Dainippon Pharmaceutical Co., Ltd.) which have been established as the cells of the nervous system. The above neuve cells were grown in an incubator at 37° C. in the presence of 5% carbon dioxide gas exponentially, and then cultivated for a certain period of time together with the compounds of formula (I).
A culture medium [composed of 45% of RPMI 1640 medium, 45% modified Eagle's medium (MEM) and 10% of fetal calf serum (FCS) and containing penicillin G sodium (100 units/ml) and streptomycin sulfate (100 microgram/ml)] containing neurobalstoma cell line GOTO in the logarithmic growth period was poured in an amount of 2 ml each into polystyrene dishes (35 mm; made by Corning Co.) so that the cell concentration was 2 to 6×10^4 cells per dish, and the cells were cultured for 1 to 2 days in a carbon dioxide gas incubator containing 5% of carbon dioxide gas in air at 37° C. Then, the culture fluid was removed, and 2 ml of a fresh serum-free culture fluid (consisting of 50% of RPMI medium and 50% of MEM medium and containing penicillin G sodium and streptomycin sulfate in the same amounts as above) was added. At the same time, a presterilized PBS solution (phosphate buffered saline) of each of the test compounds in various concentrations was added to each of the dishes. After culturing for 24 hours, the number of living cells was counted. Furthermore, the culture was photographed, and from the photos, the number and length of neurites per cell were measured. The numer of living cells was counted for 3 to 6 dishes by resistance to staining with erythrosine dye. The number and length of the neurites were measured with regard to 6 photos (more than 200 cells per photo).
As a simple method of evaluation, the number of cells have neurites with a length equal to, or larger than, the long diameter of the cell was divided by the total number of cells.

[2] = tested on: rats with lesioned nigral dopaminergic nerve cells; assay: Methamphetamine-induced rotational movement of rats with lesioned nigral dopaminergic nerve cells after transplantation of fetal cerebral cells; format: in vivo, rat (female Wistar); conditions: number within one minute
Protocol: Rats and mice models of central nervous disorders were prepared, and the pharmacological effects of the compounds (I) of this invention were tested. Specifically, nigral dopamine cells of the rat brain were chemically destroyed by injecting a very small amount of 6-hydroxydopamineto induce motor imbalance. Two weeks later, dopamine cells of fetal brain were transplanted in the caudate nucleus into the lesioned side of the rat brain and an attempt was made to improve the motor trouble. Specifically, beginning on the day of transplantation, the compound (I) of the invention was intraperitoneally administered every day over 2 weeks, and the activity of the compounds (I) of the invention on the improvement of the motor imbalance and the growth of the transplanted cells was examined.
Promoting effect on the improvement of motor imbalance due to injury of the rat's brain cells by transplantation of fetal cerebral cells:
Nigral dopaminergic nerve cells at the left side of the brain of 4-week old female Wistar rats (body weight 100 g) were lesioned by injecting a very small quantity of 6-hydroxydopamine. […] Upon administration of methamphethamine (5 mg/kg, i.p.) to the rats having the lesioned nigral dopaminergic nerve cells, they began rotational movement toward the lesioned side.
After two weeks from the destruction by the administration of the drug, portions of the […] containing dopamine cells (i.e., substantia nigra and the tagmentum at the abdomen side) were cut from the brain of a fetal rat of 14 to 17 days of age, cut finely, and treated with trypsin. Then, the extracted tissues were incubated at 37° C. for 30 minutes, and the tissues were subjected to pipetting to form a suspension. Five microliters of the suspension was transplanted each into two sites of the caudate nucleus of the lesioned side (10 microliters in total, about 10^5 cells).
Each of the compounds (I) in a dose of 100 mg/kg (i.p.) was administered every day over two weeks from the day of transplantation. The rotational movements induced by administration of methamphetamine were examined 2 weeks and 1 week before, and 2 weeks and 4 weeks after, the transplantation and the administration of the drug. The number of rotational movements within one minute was counted at intervals of 10 minutes after the administration of methamphetamine, and the total number of rotational movements counted six times was averaged to find a mean number of the rotational movements.

[3] = Run No. 1, 1 week before transplantation, saline 12.23 ± 4.88
[4] = Run No. 1, 2 weeks after transplantation, 100 mg/kg i.p. daily over two weeks, saline 5.9 ± 2.75
[5] = Run No. 1, 2 weeks before transplantation, saline 10.9 ± 4.57
[6] = Run No. 1, 4 weeks after transplantation, 100 mg/kg i.p. daily over two weeks, saline 3 ± 3.23
[7] = Run No. 2, 1 week before transplantation, saline 10 ± 5.3
[8] = Run No. 2, 2 weeks after transplantation, 100 mg/kg i.p. daily over two weeks, saline 4.4 ± 5.9
[9] = Run No. 2, 2 weeks before transplantation, saline 12 ± 3.95
[10] = Run No. 2, 4 weeks after transplantation, 100 mg/kg i.p. daily over two weeks, saline 1.5 ± 3.2

| Compound | Average of the proportions [1] | Number of rotational movements (mean ± S.D.) [2, 3] | Number of rotational movements (mean ± S.D.) [2, 4] | Number of rotational movements (mean ± S.D.) [2, 5] | Number of rotational movements (mean ± S.D.) [2, 6] | Number of rotational movements (mean ± S.D.) [2, 7] | Number of rotational movements (mean ± S.D.) [2, 8] | Number of rotational movements (mean ± S.D.) [2, 9] | Number of rotational movements (mean ± S.D.) [2, 10] |
| --- | --- | --- | --- | --- | --- | --- | --- | --- | --- |
| CN1Cc2nc(N3CCNCC3)ncc2C1=O [Compound 604] | 21.30% | 10.4 ± 5.75 | 2.99 ± 2.91 | 10.6 ± 3.82 | 3.37 ± 1.65 | 11.28 ± 4.0 | 1.03 ± 2.9 | 13.33 ± 4.9 | 0.75 ± 2.8 |
| CN1C(=O)Cc2cnc(N3CCNCC3)nc21 [Compound 408] | 25.33% | 12.27 ± 2.48 | 4.9 ± 2.38 | 8.57 ± 2.36 | 2.03 ± 1.56 | 11.06 ± 4.5 | 1.94 ± 2.0 | 10.94 ± 6.4 | 1.53 ± 2.1 |

From patent US4959368A, “Therapeutic agent for neurological diseases” (Mitsui Petrochemical Industries Ltd., priority 1986, dated 1990)
